≈ marks a conversion by molar mass, not a printed value. Read-outs that look alike come from different tables or passages of the source.
Tests used:
[1] = system: Staphylococcus aureus ATCC 29213; test: Broth microdilution MIC assay, quality control strain (Example 2); format: cell-based; conditions: ATCC29213, S. aureus ATCC 29213 (QC), CAMHB
Description: (§1) Following incubation, colonies were harvested from these plates and cell suspensions prepared and frozen at −80° C. with a cryoprotectant. Prior to testing, N. gonorrhoeae isolates were streaked onto Chocolate Agar [Becton Dickinson, (BD), Sparks, Md.; Lot No. 922807]; Staphylococcus aureus ATCC 29213 tested for quality control (QC) purposes was streaked onto Trypticase Soy Agar with 5% Sheep Blood (TSA II; BD; Lot No. 9219399).
Cation-adjusted Mueller Hinton broth (CAMHB; BD; Lot No. 9019592) was used for MIC testing of S. aureus ATCC 29213 for QC purposes.
(§2) MIC values were determined using a broth microdilution procedure described by CLSI (1, 2). Automated liquid handlers (Multidrop 384, Labsystems, Helsinki, Finland; Biomek 2000 and Biomek FX, Beckman Coulter, Fullerton Calif.) were used to conduct serial dilutions and liquid transfers.
(§3) To prepare the drug mother plates, which would provide the serial drug dilutions for the replicate daughter plates, the wells of columns 2 through 12 of standard 96-well microdilution plates (Costar 3795) were filled with 150 μl of the designated diluent for each row of drug. The test articles and comparator compounds (300 μl at 100× the highest concentration to be tested) were dispensed into the appropriate wells in column 1. The Biomek 2000 was then used to make 2-fold serial dilutions in the mother plates from column 1 through column 11. The wells of column 12 contained no drug and served as the organism growth control wells for the assay.
(§4) The daughter plates were loaded with 190 μL per well of the appropriate test medium for the tested organism using the Multidrop 384. The daughter plates were completed on the Biomek FX instrument which transferred 2 μL of drug solution from each well of a mother plate to the corresponding well of each daughter plate in a single step. Daughter plates for the testing of anaerobes were allowed to pre-reduce in the Bactron II anaerobe chamber for 2 hr prior to inoculation.
A standardized inoculum of each test organism was prepared per CLSI methods (1, 2). The inoculum for each organism was dispensed into sterile reservoirs divided by length (Beckman Coulter), and the Biomek 2000 was used to inoculate the plates. Daughter plates were placed on the Biomek 2000 work surface in reverse orientation so that inoculation took place from low to high drug concentration. Anaerobic organisms were inoculated by hand in the Bactron II anaerobic chamber. Bacterial plates were then inoculated with 10 μL of the inoculum resulting in a final cell density of approximately 5×10^5 CFU/mL.
Plates were stacked 3 to 4 high, covered with a lid on the top plate and placed in plastic bags. […] The MIC was read and recorded as the lowest concentration of drug that inhibited visible growth of the organism.

Neisseria gonorrhoeae = test: Broth microdilution MIC assay, 30 isolates (Example 2); format: cell-based
Description: In this study, the in vitro spectrum of activity of CBD was determined against 30 isolates comprised of reference strains from the WHO, isolates from the CDC antibiotic resistance bank, and clinical isolates from the Micromyx (MMX) repository, with different resistance phenotypes. Assays were conducted following guidelines recommended by the Clinical and Laboratory Standards Institute (CLSI; 1, 2) with the exception that broth microdilution was used instead of agar dilution.
Stock solutions of all compounds were prepared on the day of testing using solvents recommended by CLSI. Stock solutions of all compounds were made at 101× the final testing concentration. CBD was supplied by Cerilliant (Round Rock, Tex.) as a 1 mg/mL methanolic solution which was stored at −20° C. after receipt. Prior to testing, using a 5 mL aliquot of the CBD methanolic solution, the methanol was dried off and the residual CBD was resuspended in 774 μL DMSO resulting in a 6.464 mg/mL solution.
The test organisms evaluated in this study consisted of Neisseria gonorrhoeae isolates from the Micromyx repository and reference isolates from the American Type Culture Collection (ATCC; Manassas, Va.), Centers for Disease Control and Prevention (CDC; Atlanta, Ga.) or the National Collection of Type Cultures (NCTC; Public Health England, Salisbury, UK). Upon initial receipt at Micromyx, the organisms were sub-cultured onto an appropriate agar medium.
as §1
For N. gonorrhoeae, a modified medium described by the ATCC as capable of supporting the growth of N. gonorrhoeae (Neisseria peptone medium) was used for the broth microdilution MIC assay. This medium contained 15 g Oxoid Special Peptone (Lot No. 1280296; Oxoid, Hampshire, UK), 1 g corn starch (Lot No. AD-13344-14; Ward's Science; Rochester, N.Y.), 5 g NaCl (Lot No. 57897; VWR, Radnor, Pa.), 4 g K2HPO4 (Lot No. SLBT7061; Sigma), and 1 g KH2PO4 (Lot No. SLBC1921V; Sigma). After autoclaving, the medium was centrifuged at 5,000×g for 10 min, the supernatant was passed through a 0.45 μm filter, and IsoVitaleX supplement (Lot No. 8323954; BD) was added at 1% (v/v).
as §2, §3, §4

[2] = 30 isolates of N. gonorrhoeae, broth microdilution
[3] = 30 isolates of N. gonorrhoeae, broth microdilution, MIC distribution
[4] = 30 isolates, broth dilution assay, MIC distribution (Table 6)

In the case of `CO/N=C(\C(=O)N[C@@H]1C(=O)N2C(C(=O)O)=C(CSc3nc(=O)c(=O)[nH]n3C)CS[C@H]12)c1csc(N)n1` [CRO, ceftriaxone], the MIC [1] is reported as 2 µg/mL (≈ 3.61 µM), the MIC50 (Neisseria gonorrhoeae; [2]) is reported as no more than 0.008 µg/mL and the “MIC Range” value (Neisseria gonorrhoeae; [2]) is reported as ≤0.008 − 1 μg/mL. The “Number of isolates at MIC value 0.015 μg/mL” value (Neisseria gonorrhoeae; [3]) was 5, the “Number of isolates at MIC value 0.03 μg/mL” value (Neisseria gonorrhoeae; [3]) was 2 and the “Number of isolates at MIC value 0.06 μg/mL” value (Neisseria gonorrhoeae; [3]) was 1. For the same molecule, the “Number of isolates at MIC value 0.5 μg/mL” value (Neisseria gonorrhoeae; [3]) was 1, the “Number of isolates at MIC value 1 μg/mL” value (Neisseria gonorrhoeae; [3]) was 1 and the “Number of isolates at MIC value 2 μg/mL” value (Neisseria gonorrhoeae; [3]) was 0. For the same molecule, the “Number of isolates at MIC value 4 μg/mL” value (Neisseria gonorrhoeae; [3]) was 0, the “Number of isolates at MIC value 8 μg/mL” value (Neisseria gonorrhoeae; [3]) was 0 and the “Number of isolates at MIC value <0.008 μg/mL” value (Neisseria gonorrhoeae; [3]) was 20. For the same molecule, the “Number of isolates at MIC value >8 μg/mL” value (Neisseria gonorrhoeae; [3]) was 0, the “Number of isolates at MIC value […]” value (Neisseria gonorrhoeae; [3]) was 0 and the “MIC Range” value (Neisseria gonorrhoeae; 30 isolates of N. gonorrhoeae, broth microdilution, listed as ceftriaxone) was no more than 0.008 to 1 µg/mL. The “Number of isolates at MIC 0.08 μg mL^−1” value (Neisseria gonorrhoeae; [4]) was 0, the “Number of isolates at MIC ≤0.004 μg mL^−1” value (Neisseria gonorrhoeae; [4]) was 20 and the MIC (Neisseria gonorrhoeae; N. gonorrhoeae ATCC 49226 (QC), broth microdilution) was “£0.008 μg/mL”. The MIC (Neisseria gonorrhoeae; Neisseria gonorrhoeae, ATCC49226, N. gonorrhoeae ATCC 49226 (QC), broth microdilution, read-out: MIC) was no more than 0.008 µg/mL, the MIC (Neisseria gonorrhoeae; Neisseria gonorrhoeae, N. gonorrhoeae CDC 0165 (CIP-R, AZI MIC 1), broth microdilution, read-out: MIC) was 0.015 µg/mL (≈ 0.027 µM) and the MIC (Neisseria gonorrhoeae; Neisseria gonorrhoeae, N. gonorrhoeae CDC 0166 (CIP-R, AZI MIC 1), broth microdilution, read-out: MIC) was 0.015 µg/mL (≈ 0.027 µM). The MIC (Neisseria gonorrhoeae; Neisseria gonorrhoeae, N. gonorrhoeae CDC 0167 (CIP-S, AZI MIC 8), broth microdilution, read-out: MIC) was no more than 0.008 µg/mL, the MIC (Neisseria gonorrhoeae; Neisseria gonorrhoeae, N. gonorrhoeae CDC 0172 (CIP-R, AZI MIC 0.5), broth microdilution, read-out: MIC) was no more than 0.008 µg/mL and the MIC (Neisseria gonorrhoeae; Neisseria gonorrhoeae, N. gonorrhoeae CDC 0175 (CIP-S, AZI MIC 16), broth microdilution, read-out: MIC) was no more than 0.008 µg/mL. For the same molecule, the MIC (Neisseria gonorrhoeae; Neisseria gonorrhoeae, N. gonorrhoeae CDC 0177 (CIP-S, AZI MIC 2), broth microdilution, read-out: MIC) was no more than 0.008 µg/mL, the MIC (Neisseria gonorrhoeae; Neisseria gonorrhoeae, N. gonorrhoeae CDC 0181 (CIP-S, AZI MIC 256), broth microdilution, read-out: MIC) was no more than 0.008 µg/mL and the MIC (Neisseria gonorrhoeae; Neisseria gonorrhoeae, N. gonorrhoeae CDC 0194 (CRO-NS, CIP-S, AZI MIC 0.5), broth microdilution, read-out: MIC) was 0.03 µg/mL (≈ 0.0541 µM). It also gave an MIC (Neisseria gonorrhoeae; Neisseria gonorrhoeae, N. gonorrhoeae MMX 6921 (CIP-R), broth microdilution, read-out: MIC) of no more than 0.008 µg/mL, an MIC (Neisseria gonorrhoeae; Neisseria gonorrhoeae, N. gonorrhoeae MMX 6938 (CIP-S), broth microdilution, read-out: MIC) of no more than 0.008 µg/mL and an MIC (Neisseria gonorrhoeae; Neisseria gonorrhoeae, N. gonorrhoeae MMX 10409 (CIP-R), broth microdilution, read-out: MIC) of 0.015 µg/mL (≈ 0.027 µM). The MIC (Neisseria gonorrhoeae; Neisseria gonorrhoeae, N. gonorrhoeae MMX 10410 (CIP-S), broth microdilution, read-out: MIC) was no more than 0.008 µg/mL, the MIC (Neisseria gonorrhoeae; Neisseria gonorrhoeae, N. gonorrhoeae MMX 10447 (CIP-S), broth microdilution, read-out: MIC) was no more than 0.008 µg/mL and the MIC (Neisseria gonorrhoeae; Neisseria gonorrhoeae, N. gonorrhoeae MMX 10450 (CIP-S), broth microdilution, read-out: MIC) was no more than 0.008 µg/mL. It also gave an MIC (Neisseria gonorrhoeae; Neisseria gonorrhoeae, N. gonorrhoeae MMX 10452 (CIP-R), broth microdilution, read-out: MIC) of no more than 0.008 µg/mL, an MIC (Neisseria gonorrhoeae; Neisseria gonorrhoeae, N. gonorrhoeae MMX 10454 (CIP-R), broth microdilution, read-out: MIC) of 0.015 µg/mL (≈ 0.027 µM) and an MIC (Neisseria gonorrhoeae; Neisseria gonorrhoeae, NCTC13477, N. gonorrhoeae NCTC 13477 (WHO F; CIP-S, AZI MIC […]), broth microdilution, read-out: MIC) of no more than 0.008 µg/mL. It also gave an MIC (Neisseria gonorrhoeae; Neisseria gonorrhoeae, NCTC13478, N. gonorrhoeae NCTC 13478 (WHO G; CIP-I, AZI MIC […]), broth microdilution, read-out: MIC) of no more than 0.008 µg/mL, an MIC (Neisseria gonorrhoeae; Neisseria gonorrhoeae, NCTC13479, N. gonorrhoeae NCTC 13479 (WHO K; CIP-R, AZI MIC […]), broth microdilution, read-out: MIC) of 0.03 µg/mL (≈ 0.0541 µM) and an MIC (Neisseria gonorrhoeae; Neisseria gonorrhoeae, NCTC13480, N. gonorrhoeae NCTC 13480 (WHO L; CIP-R, AZI MIC 0.5), broth microdilution, read-out: MIC) of 0.06 µg/mL (≈ 0.108 µM). For the same molecule, the MIC (Neisseria gonorrhoeae; Neisseria gonorrhoeae, NCTC13481, N. gonorrhoeae NCTC 13481 (WHO M; CIP-R, AZI MIC […]), broth microdilution, read-out: MIC) was no more than 0.008 µg/mL, the MIC (Neisseria gonorrhoeae; Neisseria gonorrhoeae, NCTC13482, N. gonorrhoeae NCTC 13482 (WHO N; CIP-R, AZI MIC […]), broth microdilution, read-out: MIC) was no more than 0.008 µg/mL and the MIC (Neisseria gonorrhoeae; Neisseria gonorrhoeae, NCTC13483, N. gonorrhoeae NCTC 13483 (WHO O; CIP-S, AZI MIC […]), broth microdilution, read-out: MIC) was no more than 0.008 µg/mL. The MIC (Neisseria gonorrhoeae; Neisseria gonorrhoeae, NCTC13484, N. gonorrhoeae NCTC 13484 (WHO P; CIP-S, AZI MIC 4), broth microdilution, read-out: MIC) was no more than 0.008 µg/mL, the MIC (Neisseria gonorrhoeae; Neisseria gonorrhoeae, NCTC13817, N. gonorrhoeae NCTC 13817 (WHO U; CIP-S, AZI MIC 4), broth microdilution, read-out: MIC) was no more than 0.008 µg/mL and the MIC (Neisseria gonorrhoeae; Neisseria gonorrhoeae, NCTC13818, N. gonorrhoeae NCTC 13818 (WHO V; CIP-R, AZI MIC >256), broth microdilution, read-out: MIC) was no more than 0.008 µg/mL. For the same molecule, the MIC (Neisseria gonorrhoeae; Neisseria gonorrhoeae, NCTC13819, N. gonorrhoeae NCTC 13819 (WHO W; CIP-R, AZI MIC 0.5), broth microdilution, read-out: MIC) was 0.015 µg/mL (≈ 0.027 µM), the MIC (Neisseria gonorrhoeae; Neisseria gonorrhoeae, NCTC13820, N. gonorrhoeae NCTC 13820 (WHO X; CRO-NS, CIP-R, AZI MIC 0.5), broth microdilution, read-out: MIC) was 1 µg/mL (≈ 1.8 µM) and the MIC (Neisseria gonorrhoeae; Neisseria gonorrhoeae, NCTC13821, N. gonorrhoeae NCTC 13821 (WHO Y; CIP-R, AZI MIC 1), broth microdilution, read-out: MIC) was 0.5 µg/mL (≈ 0.902 µM). The MIC50 (Neisseria gonorrhoeae; Neisseria gonorrhoeae, 30 isolates of N. gonorrhoeae, broth microdilution, read-out: MIC50) was no more than 0.008 µg/mL, the MIC90 (Neisseria gonorrhoeae; Neisseria gonorrhoeae, 30 isolates of N. gonorrhoeae, broth microdilution, read-out: MIC90) was 0.03 µg/mL (≈ 0.0541 µM) and the MIC (Neisseria gonorrhoeae; Neisseria gonorrhoeae, 30 isolates of N. gonorrhoeae, broth microdilution, read-out: MIC Mode) was no more than 0.008 µg/mL.
